Where “and” joins values, the source holds several entries; their conditions need not be identical. Identical values can stand only once. Entries after “also recorded” stand apart in the source; their conditions may differ. Like-named read-outs stand apart in the source and are kept apart here.
What was measured:
[1] = In vivo substrate pharmacokinetics (plasma and brain); set-up: species or system C57BL/6 mice; conditions: for concentration at 5 min: male, C57BL/6, mouse, brain, ip, 5 min after i.p. 1.3 µmol, wild-type mice
Experimental: PK measurements were performed at Shanghai ChemPartner for Fz and compound 6 in 6- to 8-week-old overnight-fasted male C57BL/6 mice. Fz and compound 6 were formulated as clear solutions in 10% ethanol, 10% glycerol, 10% hydroxypropyl-β-cyclodextrin (Sigma-Aldrich), 35% PEG-300 and 35% water. Freshly prepared injectable doses (i.p., 20 mg per kg body weight for Fz and 21.6 mg per kg body weight for compound 6) were administered at 20 ml kg^–1. Each of the two measurement series consisted of four mice and two time points (series 1, predose and 0.083 h; series 2, 0.083 h and 0.167 h).
At each time point, ~90 µl of blood was collected into a K2EDTA tube via facial vein bleeding. Plasma samples were put on ice and centrifuged to obtain plasma samples (2,000g for 5 min at 4 °C) within 15 min of collection. The plasma samples were stored at –70 °C until analysis. For analysis, 20 µl of plasma sample was added to 20 µl of stabilizer (80:20 (vol:vol) mixture of 200 mg ml^–1 EDTA and 100 mM L-ascorbic acid in water).
At the terminal point of each series, a midline incision was made in the animal’s scalp, and the skin was retracted. The skull overlying the brain was removed. The whole brain was collected, rinsed with cold saline, dried on filtrate paper, weighed and snap-frozen by placing it into dry ice. No abnormal symptoms were observed during the studies. The brain samples were homogenized with 4 ml of stabilizer (80:20 (vol:vol) mixture of 200 mg ml^–1 EDTA and 100 mM L-ascorbic acid in water) per gram of tissue. The above samples (plasma or brain) were mixed with 120 µl of internal standard (Glipizide, 100 ng ml^–1) in acetonitrile. […] Compound concentrations were quantified using LC–MS/MS detection. […]
PK parameters were determined by the non-compartmental model of the non-compartmental analysis tool, Pharsight Phoenix WinNonlin 8.2 software. […] When the number of detected time points after Tmax was less than 3, the terminal half-life and the area under the plasma concentration-time curve from zero to infinity were not calculated.

[2] = Toxicity in mice: necropsy and histopathology; assay type: in vivo, C57BL/6 mice; set-up: key to BMH, brain multifocal hemorrhage score / HN, hepatocellular necrosis score / RTD, renal tubular dilation score / RTDR, renal tubular degeneration and regeneration score: 0: absent; 1: minimal; 2: mild; 3: moderate; 4: severe; key to HMNH, heart myocardial necrosis and hemorrhage score: 0: no lesions; 1: <5% of myocardium affected; 2: 5-10% affected; 3: 10-25% affected; 4: >25% affected; key to SRPHMV, splenic red pulp histiocytosis with microvesicular vacuolation score: 0: no lesions; 1: lesions present; key to LC, Liver capsule score: 0: normal; 1: segmental subcapsular necrosis +/- neutrophilic infiltrate; Total organ score: scale not given here; conditions: for toxicity after a single i.p. injection: 4.2 µmol with 20 mg P-407, one injection; for BMH, brain multifocal hemorrhage score / HMNH, heart myocardial necrosis and hemorrhage score / HN, hepatocellular necrosis score / LC, Liver capsule score / RTD, renal tubular dilation score / RTDR, renal tubular degeneration and regeneration score / SRPHMV, splenic red pulp histiocytosis with microvesicular vacuolation score / Total organ score / ∆ weight: individual mice
Experimental: (§1) Male C57BL/6 mice of 2 months of age were killed by CO2 asphyxiation and cardiac exsanguination. All mice were weighed, and a complete gross examination of the external and internal organs was performed. […] Formalin-fixed tissues were processed routinely, embedded in paraffin, sectioned at 5 μm and stained with hematoxylin and eosin. All slides were blindly evaluated for histologic treatment-related effects (Supplementary Table 1) by a board-certified veterinary pathologist.

[3] = Toxicity in mice: necropsy and histopathology; assay type: in vivo, C57BL/6 mice; set-up: key: 0: absent; 1: minimal accumulation; 2: mild accumulation; 3: moderate accumulation; 4: severe accumulation; conditions: individual mice
Experimental: as §1

[4] = set-up: method as in doi:10.1134/S1068162018020085; conditions: cited from earlier work

In the case of `O=c1c(Cc2ccco2)nc2c(Cc3ccccc3)[nH]c(-c3cccc(F)c3F)cn1-2` [compound 6, cephalofurimazine], the “bioavailability from plasma concentrations” value ([1]; i.p. 1.3 µmol, plasma at 5 and 10 min, vs Fz) is reported as “improved bioavailability after i.p. injection”, the concentration at 5 min [1] is reported as 1400 nM and the weight loss ([2]; 1.3 µmol CFz with 12 mg P-407, daily for 3 or 5 d) is reported as less than 5%. The “effects on organ tissues after daily administration” value ([2]; 1.3 µmol CFz with 12 mg P-407, daily i.p. for 3 or 5 d, listed as CFz) was “mild and well tolerated and Renal lesions were minimal to absent”, the “toxicity after three daily i.p. injections” value ([2]; 4.2 µmol CFz with 20 mg P-407) was “noticeably toxic to organs” and the “toxicity after a single i.p. injection” value [2] was “minimal effects on heart and kidney tissues without weight loss”. For the same compound, the “toxicity after a single i.p. injection” value ([2]; listed as CFz) was “minimal toxicity”, the “BMH, brain multifocal hemorrhage score” value ([2]; 1 day, 4.2 µmol, 20 mg P-407) was 0 and the “HMNH, heart myocardial necrosis and hemorrhage score” value ([2]; 1 day, 4.2 µmol, 20 mg P-407) was 1 (<5% of myocardium affected) and 0 (2×). For the same compound, the “HN, hepatocellular necrosis score” value ([2]; 1 day, 4.2 µmol, 20 mg P-407) was 0, the “LC, Liver capsule score” value ([2]; 1 day, 4.2 µmol, 20 mg P-407) was 0 and the “RTD, renal tubular dilation score” value ([2]; 1 day, 4.2 µmol, 20 mg P-407) was 0 and 1 (<5% of tubules affected) (2×). For the same compound, the “RTDR, renal tubular degeneration and regeneration score” value ([2]; 1 day, 4.2 µmol, 20 mg P-407) was 0 (2×) and 1 (<5% of tubules affected), the “SRPHMV, splenic red pulp histiocytosis with microvesicular vacuolation score” value (“SRPHMV, splenic red pulp histiocytosis” below) ([2]; 1 day, 4.2 µmol, 20 mg P-407) was 0 and the Total organ score ([2]; 1 day, 4.2 µmol, 20 mg P-407) was 2 (2×) and 1. For the same compound, the “∆ weight” value ([2]; 1 day, 4.2 µmol, 20 mg P-407) was “–0.7% and +0.3% and +1.4%”, the “BMH, brain multifocal hemorrhage score” value ([2]; 3 days, 1.3 µmol, 12 mg P-407) was 0 and the “HMNH, heart myocardial necrosis and hemorrhage score” value ([2]; 3 days, 1.3 µmol, 12 mg P-407) was 1 (<5% of myocardium affected). For the same compound, the “HN, hepatocellular necrosis score” value ([2]; 3 days, 1.3 µmol, 12 mg P-407) was 0 (2×) and 2, the “LC, Liver capsule score” value ([2]; 3 days, 1.3 µmol, 12 mg P-407) was 0 and the “RTD, renal tubular dilation score” value ([2]; 3 days, 1.3 µmol, 12 mg P-407) was 1 (<5% of tubules affected) (2×) and 0. The “RTDR, renal tubular degeneration and regeneration score” value ([2]; 3 days, 1.3 µmol, 12 mg P-407) was 1 (<5% of tubules affected), the “SRPHMV, splenic red pulp histiocytosis” value ([2]; 3 days, 1.3 µmol, 12 mg P-407) was 0 and the Total organ score ([2]; 3 days, 1.3 µmol, 12 mg P-407) was 3 and 2 and 5. The “∆ weight” value ([2]; 3 days, 1.3 µmol, 12 mg P-407) was “–2.2%; also recorded: –0.4%; also recorded: –1.1%”, the “BMH, brain multifocal hemorrhage score” value ([2]; 3 days, 4.2 µmol, 20 mg P-407) was 0 and the “HMNH, heart myocardial necrosis and hemorrhage score” value ([2]; 3 days, 4.2 µmol, 20 mg P-407) was 2 (5-10% affected) (2×) and 1 (<5% of myocardium affected). For the same compound, the “HN, hepatocellular necrosis score” value ([2]; 3 days, 4.2 µmol, 20 mg P-407) was 0, the “LC, Liver capsule score” value ([2]; 3 days, 4.2 µmol, 20 mg P-407) was 0 and the “RTD, renal tubular dilation score” value ([2]; 3 days, 4.2 µmol, 20 mg P-407) was 3 (25%–50% of tubules affected) (2×) and 2 (5%–25% of tubules affected). For the same compound, the “RTDR, renal tubular degeneration and regeneration score” value ([2]; 3 days, 4.2 µmol, 20 mg P-407) was 3 (25%–50% of tubules affected) and 2 (5%–25% of tubules affected) (2×), the “SRPHMV, splenic red pulp histiocytosis” value ([2]; 3 days, 4.2 µmol, 20 mg P-407) was 1 and the Total organ score ([2]; 3 days, 4.2 µmol, 20 mg P-407) was 9 (2×) and 6. For the same compound, the “∆ weight” value ([2]; 3 days, 4.2 µmol, 20 mg P-407) was “–8.3%; also recorded: –3.7%; also recorded: –3.0%”, the “BMH, brain multifocal hemorrhage score” value ([2]; 5 days, 1.3 µmol, 12 mg P-407) was 0 and the “HMNH, heart myocardial necrosis and hemorrhage score” value ([2]; 5 days, 1.3 µmol, 12 mg P-407) was 0 (2×) and 1 (<5% of myocardium affected). The “HN, hepatocellular necrosis score” value ([2]; 5 days, 1.3 µmol, 12 mg P-407) was 0, the “LC, Liver capsule score” value ([2]; 5 days, 1.3 µmol, 12 mg P-407) was 0 and the “RTD, renal tubular dilation score” value ([2]; 5 days, 1.3 µmol, 12 mg P-407) was 0. For the same compound, the “RTDR, renal tubular degeneration and regeneration score” value ([2]; 5 days, 1.3 µmol, 12 mg P-407) was 1 (<5% of tubules affected) (2×) and 0, the “SRPHMV, splenic red pulp histiocytosis” value ([2]; 5 days, 1.3 µmol, 12 mg P-407) was 1 and the Total organ score ([2]; 5 days, 1.3 µmol, 12 mg P-407) was 1 (2×) and 3. For the same compound, the “∆ weight” value ([2]; 5 days, 1.3 µmol, 12 mg P-407) was “–3.2%; also recorded: –4.6%; also recorded: –1.8%”, the “KCHMV, Kupffer cell hyperplasia and microvesicular vacuolation score” value ([3]; 3 days, 4.2 µmol, 20 mg P-407) was 2 and the “KCHMV, Kupffer cell hyperplasia and microvesicular vacuolation score” value ([3]; 5 days, 1.3 µmol, 12 mg P-407) was 2.

In the case of `O=c1c(Cc2ccco2)nc2c(Cc3ccccc3)[nH]c(-c3ccccc3)cn1-2` [Fz, furimazine, reference compound], the concentration at 5 min [1] is listed as 1100 nM, the “toxicity of daily i.v. injection” value ([4]; 20 µg i.v. per day) is listed as “minimal toxicity” and the “toxicity of daily i.v. injection” value ([4]; 60 µg (0.16 µmol) i.v. daily for 7 d) is listed as “caused liver and lung damage”.
